Measurements taken from article PMC6308302, “Identification of Pharmacokinetic Markers for Guanxin Danshen Drop Pills in Rats by Combination of Pharmacokinetics, Systems Pharmacology, and Pharmacodynamic Assays” (Frontiers in Pharmacology, 2018).
“Also recorded” adds a separate entry of the source. Marks after values point to notes of the source that are not given here.

Key:
[1] = Stability tests in rat plasma (QC samples, HPLC-MS); details: n=5
Description: Accuracy and precision were expressed by relative error (RE) and coefficient of variance (RSD), respectively.

[2] = test system: isoprenaline-induced MI in mice; assay: In vivo anti-MI study: isoprenaline-induced myocardial injury (ECG, H&E histology); details: for Histopathology of heart tissue (H&E): 40 mg/kg p.o. for 7 days, isoprenaline-induced MI, 40 mg/kg; for ECG (lead II) findings on the fifth day of the trial: 40 mg/kg p.o., isoprenaline 5 mg/kg on days 4 and 5
[3] = Aqueous solubility test (vortexing in water); assay type: physicochemical
[4] = Multiple component PK study in rat plasma after p.o. GDDP (HPLC-MS); details: for determination in rat plasma at the planned successive PK time points / detection in rat plasma: GDDP 0.8 g/kg p.o.; for determination in rat plasma at the planned successive PK time points: 5, 10, 15, 30, 45, 60, and 120 min, LOQ 1.0–1.4 ng/mL; for detection in rat plasma: at 5, 10, 15, 30, 45, or 60 min, LOD 0.5–0.7 ng/mL; for AUC(0-inf) / AUC(0-t) / MRT inf / MRT last / Tmax / Cmax / half-life: Sprague-Dawley, rat, plasma, po
[5] = test system: Caco-2 cell monolayers; details: ref Lu et al., 2008, Liu et al., 2009, Hu et al., 2014, Bowles et al., 2017, cited from earlier work; for Papp(apical→basolateral) / Papp(basolateral→apical): Caco-2 cell monolayers, from literature; for apparent permeability in Caco-2 cell monolayers: previous results
[6] = 24h in auto-sampler vials, spiked 2 ng/mL
[7] = 24h in auto-sampler vials, spiked 400 ng/mL
[8] = 24h in auto-sampler vials, spiked 1600 ng/mL
[9] = Placing plasma for 6h at 4°C, spiked 2 ng/mL
[10] = Placing plasma for 6h at 4°C, spiked 400 ng/mL
[11] = Placing plasma for 6h at 4°C, spiked 1600 ng/mL
[12] = three freeze-thaw cycles, rat plasma, spiked 2 ng/mL
[13] = three freeze-thaw cycles, rat plasma, spiked 400 ng/mL
[14] = three freeze-thaw cycles, rat plasma, spiked 1600 ng/mL
[15] = 0.4 g/kg, Cmax, rat plasma, GDDP 0.4 g/kg p.o. (Low dose group), n=3
[16] = 0.4 g/kg, t1/2 β, rat plasma, GDDP 0.4 g/kg p.o. (Low dose group), n=3
[17] = 0.8 g/kg, Cmax (high / low plasma drug concentrations), rats, GDDP 0.4 and 0.8 g/kg p.o., classification
[18] = 0.8 g/kg, Cmax, rat plasma, GDDP 0.8 g/kg p.o. (High dose group), n=3
[19] = 0.8 g/kg, t1/2 β (fast / slow elimination type), rats, GDDP 0.4 and 0.8 g/kg p.o., classification
[20] = 0.8 g/kg, t1/2 β, rat plasma, GDDP 0.8 g/kg p.o. (High dose group), n=3
[21] = rat plasma, GDDP 0.4 g/kg p.o. (Low dose group), n=3
[22] = rat plasma, GDDP 0.8 g/kg p.o. (High dose group), n=3

Cc1cccc2c3c(ccc12)C1=C(C(=O)C3=O)[C@@H](C)CO1 [DHTS I, dihydrotanshinone I]
Stability: Measured [1, 6]: 2.21 ± 0.23 ng/mL
Stability: RE [1, 6]: 10.31%
Stability: Measured [1, 7]: 464.67 ± 43.51 ng/mL
Stability: RE [1, 7]: 16.17%
Stability: Measured [1, 8]: 1644.43 ± 109.72 ng/mL
Stability: RE [1, 8]: 2.78%
Stability: Measured [1, 9]: 2.23 ± 0.06 ng/mL
Stability: RE [1, 9]: 11.41%
Stability: Measured [1, 10]: 456.85 ± 38.51 ng/mL
Stability: RE [1, 10]: 14.21%
Stability: Measured [1, 11]: 1735.14 ± 230.11 ng/mL
Stability: RE [1, 11]: 8.45%
Stability: Measured [1, 12]: 2.015 ± 0.18 ng/mL
Stability: RE [1, 12]: 2.73%
Stability: Measured [1, 13]: 437.97 ± 37.90 ng/mL
Stability: RE [1, 13]: 9.49%
Stability: RE [1, 14]: 0.88%
Histopathology of heart tissue (H&E) [2]: remarkably severe histological damage with extensive myocardial lysis and architecture wrecking; also recorded: extremely severe histological damage with extensive myocardial lysis and architecture wrecking
ECG (lead II) findings on the fifth day of the trial [2]: T waves reversed or decreased
solubility in water (in words) ([3]; water at 25 °C): insoluble
determination in rat plasma at the planned successive PK time points [4]: could be determined
detection in rat plasma [4]: could be detected
AUC(0-inf) ([4]; 0.4 g/kg): 14.2 ± 17.2 ng·h/mL
AUC(0-t) ([4]; 0.4 g/kg): 12.1 ± 14.4 ng·h/mL
MRT inf ([4]; 0.4 g/kg): 6.93 ± 7.38 h
MRT last ([4]; 0.4 g/kg): 5.17 ± 5.21 h
Tmax ([4]; 0.4 g/kg): 1.38 ± 0.88 h
Cmax [4, 15]: 1.9 ± 1.57 ng/mL
half-life [4, 16]: 161 ± 143 min
AUC(0-inf) ([4]; 0.8 g/kg): 16.1 ± 2.84 ng·h/mL
AUC(0-t) ([4]; 0.8 g/kg): 14.7 ± 2.51 ng·h/mL
MRT inf ([4]; 0.8 g/kg): 7.26 ± 3.47 h
MRT last ([4]; 0.8 g/kg): 5.05 ± 2.03 h
Tmax ([4]; 0.8 g/kg): 0.83 ± 0.14 h
Cmax [4, 17]: < 10 ng/mL
Cmax [4, 18]: 3.1 ± 0.49 ng/mL
half-life [4, 19]: > 156 min
half-life [4, 20]: 334 ± 179 min
Cltot [4, 21]: 6.05 ± 7.34 L/h/kg
Cltot [4, 22]: 2.86 ± 0.46 L/h/kg
Papp(apical→basolateral) [5]: 1.49^d ×10^-6 cm/s
Papp(basolateral→apical) [5]: 8.28^d ×10^-6 cm/s
apparent permeability in Caco-2 cell monolayers [5]: ≥ 10^-6 cm/s

CC(C)=CCC[C@](C)(O[C@@H]1O[C@H](CO)[C@@H](O)[C@H](O)[C@H]1O)[C@H]1CC[C@]2(C)[C@@H]1[C@H](O)C[C@@H]1[C@@]3(C)CC[C@H](O[C@@H]4O[C@H](CO)[C@@H](O)[C@H](O)[C@H]4O[C@@H]4O[C@H](CO)[C@@H](O)[C@H](O)[C@H]4O)C(C)(C)[C@@H]3CC[C@]12C [Rd, ginsenoside Rd]
Stability: Measured [1, 6]: 1.93 ± 0.23 ng/mL
Stability: RE [1, 6]: -3.59%
Stability: Measured [1, 7]: 406.43 ± 27.13 ng/mL
Stability: RE [1, 7]: 1.61%
Stability: Measured [1, 8]: 1489.53 ± 52.70 ng/mL
Stability: RE [1, 8]: -6.90%
Stability: Measured [1, 9]: 1.65 ± 0.33 ng/mL
Stability: RE [1, 9]: -17.56%
Stability: Measured [1, 10]: 449.87 ± 18.67 ng/mL
Stability: RE [1, 10]: 12.47%
Stability: Measured [1, 11]: 1891.74 ± 134.38 ng/mL
Stability: RE [1, 11]: 18.23%
Stability: Measured [1, 12]: 1.81 ± 0.18 ng/mL
Stability: RE [1, 12]: -9.59%
Stability: Measured [1, 13]: 438.01 ± 11.23 ng/mL
Stability: RE [1, 13]: 9.50%
Stability: Measured [1, 14]: 1768.72 ± 60.05 ng/mL
Stability: RE [1, 14]: 10.54%
Histopathology of heart tissue (H&E) [2]: remarkably severe histological damage with extensive myocardial lysis and architecture wrecking; also recorded: extremely severe histological damage with extensive myocardial lysis and architecture wrecking
ECG (lead II) findings on the fifth day of the trial [2]: ST segment elevated
solubility at 5 min ([3]; thermodynamic from solid, determined, water, 25 °C, 1 atm): > 10000 µg/mL
determination in rat plasma at the planned successive PK time points [4]: could be determined
detection in rat plasma [4]: could be detected
AUC(0-inf) ([4]; 0.4 g/kg): 340 ± 348 ng·h/mL
AUC(0-t) ([4]; 0.4 g/kg): 254 ± 236 ng·h/mL
MRT inf ([4]; 0.4 g/kg): 12.8 ± 8.78 h
MRT last ([4]; 0.4 g/kg): 8.88 ± 3.79 h
Tmax ([4]; 0.4 g/kg): 9 ± 4.24 h
Cmax [4, 15]: 24.5 ± 4.04 ng/mL
half-life [4, 16]: 338 ± 353 min
AUC(0-inf) ([4]; 0.8 g/kg): 378 ± 56.4 ng·h/mL
AUC(0-t) ([4]; 0.8 g/kg): 281 ± 28.1 ng·h/mL
MRT inf ([4]; 0.8 g/kg): 17.3 ± 2.01 h
MRT last ([4]; 0.8 g/kg): 10.7 ± 2.31 h
Tmax ([4]; 0.8 g/kg): 2.25 ± 3.25 h
Cmax [4, 17]: > 20 ng/mL
Cmax [4, 18]: 37.2 ± 26.3 ng/mL
half-life [4, 19]: > 156 min
half-life [4, 20]: 512 ± 265 min
Cltot [4, 21]: 37.45 ± 38.33 L/h/kg
Cltot [4, 22]: 21.02 ± 18.63 L/h/kg
Papp(apical→basolateral) [5]: > 0.1^c ×10^-6 cm/s
Papp(basolateral→apical) [5]: > 0.1^c ×10^-6 cm/s
apparent permeability in Caco-2 cell monolayers [5]: > 10^-7 cm/s
